From US9511073B2, “Aromatic amides and uses thereof” (TAXIS Pharmaceuticals, Inc., priority 2011, dated 2016) come the findings set out here.

Molecules are shown by their SMILES. In brackets after ≈: the same amount, converted by molar mass.

The first assay has as its system Staphylococcus aureus (Isolate ID ATCC 29213). Nature of the assay: Bacterial assay: MIC by broth microdilution or agar dilution (CLSI), S. aureus ATCC 29213. The format is cell-based. Particulars: S. aureus (ATCC29213). The procedure: Compounds are tested for antimicrobial activity by susceptibility testing in liquid or on solid media. Minimum inhibitory concentrations (MICs) for compounds against each strain are determined by the broth microdilution or agar dilution method according to the guidelines of the Clinical Laboratories and Standards Institute, formerly the National Committee for Clinical Laboratory Standards (Clinical Laboratories and Standards Institute. Methods for Dilution Antimicrobial Susceptibility Tests for Bacteria That Grow Aerobically; Approved Standard—Seventh Edition. Document M7-A7. CLSI, Wayne, Pa., 2006; Clinical Laboratories and Standards Institute). The bacterial strains tested include S. aureus (Staphylococcus aureus (Isolate ID ATCC 29213)) and an FtsZ mutant of this isolate (FtsZ-G196A Staphylococcus aureus (Isolate ID GG/190723/sa/1.2)). Compound MICs were determined to be in the following activity ranges “A” activity≦0.25 μg/mL; “B” activity>0.25 μg/mL-1.0 μg/mL; “C” activity>1.0 μg/mL-16 μg/mL; “D” activity>16 μg/mL and ND=not determined. The bracketed entries indicate entantiomer(s) and their activity.
(Broth dilution looks for growth in wells or tubes with falling amounts of substance.)
For `NC(=O)c1c(F)ccc(OC(CC(O)CO)c2nc(-c3ccc(C(F)(F)F)cc3)c(Br)o2)c1F` (centres unmarked) [Compound 148, 3-(1-(5-bromo-4-(4-(trifluoromethyl)phenyl)oxazol-2-yl)-3,4-dihydroxybutoxy)-2,6-difluorobenzamide], the “S. aureus MIC (μg/mL) Activity Range” value is on record as “C (activity>1.0 μg/mL-16 μg/mL)”.

Still in this assay, the particulars now being: Staphylococcus aureus, ATCC29213, read-out: S. aureus MIC (μg/mL) Activity Range, S. aureus (ATCC29213).
For `CC(C)(C)OC(=O)NCCNC(=O)OCC(Oc1ccc(F)c(C(N)=O)c1F)c1nc(-c2ccc(C(F)(F)F)cc2)c(Br)o1` (centres unmarked) [Compound 151, 2-(5-bromo-4-(4-(trifluoromethyl)phenyl)oxazol-2-yl)-2-(3-carbamoyl-2,4-difluorophenoxy)ethyl tert-butyl ethane-1,2-diyldicarbamate], the MIC is < 0.25 µg/mL.

For the molecule `CCCc1oc(C(C)Oc2ccc(F)c(C(N)=O)c2F)nc1-c1ccc(OC(F)(F)F)cc1` (centres unmarked) [Compound 20, 2,6-difluoro-3-(1-(5-propyl-4-(4-(trifluoromethoxy)phenyl)oxazol-2-yl)ethoxy)benzamide], the MIC was < 0.25 µg/mL.

Regarding `CCOc1ncc(-c2csc(C(C)Oc3ccc(F)c(C(N)=O)c3F)n2)s1` (centres unmarked) [Compound 14], the MIC is < 0.25 µg/mL.

In the case of `CNC(=O)C(Oc1ccc(F)c(C(N)=O)c1F)c1nc(-c2ccc(C(F)(F)F)cc2)c(Cl)o1` (centres unmarked) [Compound 51, 3-(1-(5-chloro-4-(4-(trifluoromethyl)phenyl)oxazol-2-yl)-2-(methylamino)-2-oxoethoxy)-2,6-difluorobenzamide], the MIC lay within 1 to 16 µg/mL (≈ 2.04 to 32.7 µM).

Take `COc1ncc(-c2nc([C@@H](CO)Oc3ccc(F)c(C(N)=O)c3F)oc2Br)cn1` [Compound 257B, (R)-3-(1-(5-bromo-4-(2-methoxypyrimidin-5-yl)oxazol-2-yl)-2-hydroxyethoxy)-2,6-difluorobenzamide]: the MIC was > 16 µg/mL.

Turning to `C=CCC(Oc1ccc(F)c(C(N)=O)c1F)c1nc(-c2ccc(Cl)cc2)c(Br)o1` (centres unmarked) [Compound 104, 3-((1-(5-bromo-4-(4-chlorophenyl)oxazol-2-yl)but-3-en-1-yl)oxy)-2,6-difluorobenzamide], the MIC fell in the range of 1 to 16 µg/mL (≈ 2.07 to 33.1 µM).

For the molecule `NC(=O)c1c(F)ccc(OC(COP(=O)(O)O)c2nc(-c3ccc(C(F)(F)F)cc3)c(Br)o2)c1F` (centres unmarked) [Compound 81, 2-(5-bromo-4-(4-(trifluoromethyl)phenyl)oxazol-2-yl)-2-(3-carbamoyl-2,4-difluorophenoxy)ethyl dihydrogen phosphate], the MIC was 0.25 to 1 µg/mL.

For `CC(Oc1ccc(F)c(C(N)=O)c1F)c1nc(-c2ccc(C(F)(F)F)cc2)c(Cl)o1` (centres unmarked) [Compound 32], the MIC lay within 0.25 to 1 µg/mL (≈ 0.56 to 2.24 µM).

Take `NC(=O)OCC(Oc1ccc(F)c(C(N)=O)c1F)c1nc(-c2ccc(C(F)(F)F)cc2)c(Cl)o1` (centres unmarked) [Compound 52, 2-(3-carbamoyl-2,4-difluorophenoxy)-2-(5-chloro-4-(4-(trifluoromethyl)phenyl)oxazol-2-yl)ethyl carbamate]: the MIC is 0.25 to 1 µg/mL (≈ 0.494 to 1.98 µM).

Turning to `C=CCCC(Oc1ccc(F)c(C(N)=O)c1F)c1nc(-c2ccc(C(F)(F)F)cc2)c(Br)o1` (centres unmarked) [Compound 124, 3-((1-(5-bromo-4-(4-(trifluoromethyl)phenyl)oxazol-2-yl)pent-4-en-1-yl)oxy)-2,6-difluorobenzamide], the MIC fell in the range of 1 to 16 µg/mL (≈ 1.88 to 30.1 µM).

As to `COc1ncc(-c2nc(C(C)Oc3ccc(F)c(C(N)=O)c3F)sc2Cl)s1` (centres unmarked) [Compound 35], the MIC is < 0.25 µg/mL.

For `COc1cnc(-c2csc(C(CO)Oc3ccc(F)c(C(N)=O)c3F)n2)cn1` (centres unmarked) [Compound 261, 2,6-difluoro-3-(2-hydroxy-1-(4-(5-methoxypyrazin-2-yl)thiazol-2-yl)ethoxy)benzamide], the MIC fell in the range of 1 to 16 µg/mL (≈ 2.45 to 39.2 µM).

For the molecule `CN(C)CCNC(=O)OCC(Oc1ccc(F)c(C(N)=O)c1F)c1nc(-c2ccc(C(F)(F)F)cc2)c(Br)o1` (centres unmarked) [Compound 134, 2-(5-bromo-4-(4-(trifluoromethyl)phenyl)oxazol-2-yl)-2-(3-carbamoyl-2,4-difluorophenoxy)ethyl (2-(dimethylamino)ethyl)carbamate], the MIC was in the range of 1 to 16 µg/mL (≈ 1.61 to 25.8 µM).

For `CCc1oc(-c2ccc(OC)cc2)nc1C(CO)Oc1ccc(F)c(C(N)=O)c1F` (centres unmarked) [Compound 306, 3-(1-(5-ethyl-2-(4-methoxyphenyl)oxazol-4-yl)-2-hydroxyethoxy)-2,6-difluorobenzamide], the MIC was 1 to 16 µg/mL (≈ 2.39 to 38.2 µM).

Take `Cn1cncc1CNC(=O)OCC(Oc1ccc(F)c(C(N)=O)c1F)c1nc(-c2ccc(C(F)(F)F)cc2)c(Br)o1` (centres unmarked) [Compound 195, 2-(5-bromo-4-(4-(trifluoromethyl)phenyl)oxazol-2-yl)-2-(3-carbamoyl-2,4-difluorophenoxy)ethyl ((1-methyl-1H-imidazol-5-yl)methyl)carbamate]: the MIC was in the range of 1 to 16 µg/mL (≈ 1.55 to 24.8 µM).

`NC(=O)c1c(F)ccc(OC(CO)c2nc(-c3ccc(Cl)cc3)co2)c1F` (centres unmarked) [Compound 10, 3-(1-(4-(4-chlorophenyl)oxazol-2-yl)-2-hydroxyethoxy)-2,6-difluorobenzamide]: the MIC was > 16 µg/mL.

Consider `NC(=O)c1c(F)ccc(OC(COC(=O)Nc2ccncc2)c2nc(-c3ccc(C(F)(F)F)cc3)c(Br)o2)c1F` (centres unmarked) [Compound 176, 2-(5-bromo-4-(4-(trifluoromethyl)phenyl)oxazol-2-yl)-2-(3-carbamoyl-2,4-difluorophenoxy)ethyl pyridin-4-ylcarbamate], for which the MIC is 0.25 to 1 µg/mL (≈ 0.399 to 1.59 µM).

As for `NCC(Oc1ccc(F)c(C(N)=O)c1F)c1nc(-c2ccc(C(F)(F)F)cc2)co1` (centres unmarked) [Compound 281, 3-(2-amino-1-(4-(4-(trifluoromethyl)phenyl)oxazol-2-yl)ethoxy)-2,6-difluorobenzamide], the MIC was > 16 µg/mL.

Consider `CC(=O)OCCCC(Oc1ccc(F)c(C(N)=O)c1F)c1nc(-c2ccc(C(F)(F)F)cc2)c(Br)o1` (centres unmarked) [Compound 89, 4-(5-bromo-4-(4-(trifluoromethyl)phenyl)oxazol-2-yl)-4-(3-carbamoyl-2,4-difluorophenoxy)butyl acetate], for which the MIC fell in the range of 0.25 to 1 µg/mL.

In the case of `CC(Oc1ccc(F)c(C(N)=O)c1F)c1nc(-c2ccc(C(F)(F)F)nc2)c(Cl)o1` (centres unmarked) [Compound 50], the MIC lay in the range of 1 to 16 µg/mL (≈ 2.23 to 35.7 µM).

Consider `C=CCC(Oc1ccc(F)c(C(N)=O)c1F)c1nc(-c2ccc(C(F)(F)F)cc2)c(Br)o1` (centres unmarked) [Compound 106, 3-((1-(5-bromo-4-(4-(trifluoromethyl)phenyl)oxazol-2-yl)but-3-en-1-yl)oxy)-2,6-difluorobenzamide], for which the MIC is 1 to 16 µg/mL (≈ 1.93 to 30.9 µM).

With `Cc1nnc(CNC(=O)OCC(Oc2ccc(F)c(C(N)=O)c2F)c2nc(-c3ccc(C(F)(F)F)cc3)c(Br)o2)o1` (centres unmarked) [Compound 172, 2-(5-bromo-4-(4-(trifluoromethyl)phenyl)oxazol-2-yl)-2-(3-carbamoyl-2,4-difluorophenoxy)ethyl ((5-methyl-1,3,4-oxadiazol-2-yl)methyl)carbamate], the MIC fell in the range of 0.25 to 1 µg/mL (≈ 0.387 to 1.55 µM).

For `NC(=O)c1c(F)ccc(OC(COC(=O)NCCN2CCCC2)c2nc(-c3ccc(C(F)(F)F)cc3)c(Br)o2)c1F` (centres unmarked) [Compound 161, 2-(5-bromo-4-(4-(trifluoromethyl)phenyl)oxazol-2-yl)-2-(3-carbamoyl-2,4-difluorophenoxy)ethyl (2-(pyrrolidin-1-yl)ethyl)carbamate], the MIC fell in the range of 1 to 16 µg/mL (≈ 1.54 to 24.7 µM).

For `CC(Oc1ccc(F)c(C(N)=O)c1F)c1nc(-c2cnc(C(F)(F)F)nc2)c(Cl)o1` (centres unmarked) [Compound 55], the MIC is 1 to 16 µg/mL (≈ 2.23 to 35.7 µM).

As to `NC(=O)c1c(F)ccc(OC(COC(=O)CN2C(=O)c3ccccc3C2=O)c2nc(-c3ccc(C(F)(F)F)cc3)c(Br)o2)c1F` (centres unmarked) [Compound 60, 2-(5-bromo-4-(4-(trifluoromethyl)phenyl)oxazol-2-yl)-2-(3-carbamoyl-2,4-difluorophenoxy)ethyl 2-(1,3-dioxoisoindolin-2-yl)acetate], the MIC lay within 0.25 to 1 µg/mL (≈ 0.36 to 1.44 µM).

As for `NC(=O)c1c(F)ccc(OC(CO)c2nc(-c3ccc(C(=O)O)cc3)c(Br)o2)c1F` (centres unmarked) [Compound 251, 4-(5-bromo-2-(1-(3-carbamoyl-2,4-difluorophenoxy)-2-hydroxyethyl)oxazol-4-yl)benzoic acid], the MIC is > 16 µg/mL.

On to `CNC(=O)C(Oc1ccc(F)c(C(N)=O)c1F)c1nc(-c2ccc(Cl)cc2)c(Cl)o1` (centres unmarked) [Compound 49, 3-(1-(5-chloro-4-(4-chlorophenyl)oxazol-2-yl)-2-(methylamino)-2-oxoethoxy)-2,6-difluorobenzamide], for which the MIC is 1 to 16 µg/mL (≈ 2.19 to 35.1 µM).

On to `COC(=O)CCNC(=O)OCC(Oc1ccc(F)c(C(N)=O)c1F)c1nc(-c2ccc(C(F)(F)F)cc2)c(Br)o1` (centres unmarked) [Compound 141, methyl 3-(((2-(5-bromo-4-(4-(trifluoromethyl)phenyl)oxazol-2-yl)-2-(3-carbamoyl-2,4-difluorophenoxy)ethoxy)carbonyl)amino)propanoate], for which the MIC is < 0.25 µg/mL.

Regarding `CCCc1oc(C(CC)Oc2ccc(F)c(C(N)=O)c2F)nc1-c1ccc(Cl)cc1` (centres unmarked) [Compound 26, 3-(1-(4-(4-chlorophenyl)-5-propyloxazol-2-yl)propoxy)-2,6-difluorobenzamide], the MIC is 0.25 to 1 µg/mL (≈ 0.575 to 2.3 µM).

As to `Cc1nnc(CC(Oc2ccc(F)c(C(N)=O)c2F)c2nc(-c3ccc(C(F)(F)F)cc3)c(Br)o2)o1` (centres unmarked) [Compound 120, 3-(1-(5-bromo-4-(4-(trifluoromethyl)phenyl)oxazol-2-yl)-2-(5-methyl-1,3,4-oxadiazol-2-yl)ethoxy)-2,6-difluorobenzamide], the MIC was in the range of 1 to 16 µg/mL (≈ 1.74 to 27.9 µM).

As to `CCOC(=O)C(CC(Oc1ccc(F)c(C(N)=O)c1F)c1nc(-c2ccc(C(F)(F)F)cc2)c(Br)o1)C(=O)OCC` (centres unmarked) [Compound 119, diethyl 2-(2-(5-bromo-4-(4-(trifluoromethyl)phenyl)oxazol-2-yl)-2-(3-carbamoyl-2,4-difluorophenoxy)ethyl)malonate], the MIC is > 16 µg/mL.
